Assay results from ChEMBL document CHEMBL1201862, “PubChem BioAssay data set” (2004).
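In this assay, cells in 96-well plates receive the compound at five concentrations for 48 hours. Endpoints are linearly interpolated between the surrounding concentrations. GI50 = concentration required for 50% inhibition of growth.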 Calls of active or inactive are those of the source. Cut-off read from the data, not from the text of the source: active = GI50 up to about 1.1 µM and inactive = higher.

Tests used:
Experiment in all cases: DTP human tumour cell line panel, 48 h
[1] = test system: RXF 393
[2] = test system: OVCAR-5
[3] = test system: HT-29
[4] = test system: SF-268
[5] = test system: SF-539
[6] = test system: SR
[7] = test system: HOP-62
[8] = test system: SNB-75
[9] = test system: U-251
[10] = test system: EKVX
[11] = test system: SK-OV-3
[12] = test system: OVCAR-8
[13] = test system: SF-295
[14] = test system: ACHN
[15] = test system: LOX IMVI
[16] = test system: A498
[17] = test system: HL-60
[18] = test system: CCRF-CEM

| Structure (SMILES) | GI50 [1] | GI50 [2] | GI50 [3] | GI50 [4] | GI50 [5] | GI50 [6] | GI50 [7] | GI50 [8] | GI50 [9] | GI50 [10] | GI50 [11] | GI50 [12] | GI50 [13] | GI50 [14] | GI50 [15] | GI50 [16] | GI50 [17] | GI50 [18] |
| --- | --- | --- | --- | --- | --- | --- | --- | --- | --- | --- | --- | --- | --- | --- | --- | --- | --- | --- |
| COC(c1cccc(C(O)(C(F)(F)F)C(F)(F)F)c1)(C(F)(F)F)C(F)(F)F | 20.4 µM (inactive) | 18.4 µM (inactive) | 17.5 µM (inactive) | 23.7 µM (inactive) | 19.2 µM (inactive) | 32.1 µM (inactive) | 19.1 µM (inactive) | 17.5 µM (inactive) | 18.3 µM (inactive) | 17.9 µM (inactive) | 20.1 µM (inactive) | 24.6 µM (inactive) | 15.7 µM (inactive) | 15.8 µM (inactive) | 17.5 µM (inactive) | 20.1 µM (inactive) | – | – |
| O=C(CSSCC(=O)Nc1ccc(Br)cc1)Nc1ccc(Br)cc1 | 18.7 µM (inactive) | 18.2 µM (inactive) | 20.9 µM (inactive) | 13.7 µM (inactive) | 17.6 µM (inactive) | 10.3 µM (inactive) | 12.4 µM (inactive) | 20.7 µM (inactive) | 14.4 µM (inactive) | 26.5 µM (inactive) | 25.4 µM (inactive) | 17.3 µM (inactive) | 14.7 µM (inactive) | 15.8 µM (inactive) | 10.8 µM (inactive) | 19.6 µM (inactive) | 16.9 µM (inactive) | – |
| Cc1cc(C)n(CCNCCn2nc(C)cc2C)n1 | > 100 µM (inactive) | – | – | > 100 µM (inactive) | > 100 µM (inactive) | > 100 µM (inactive) | > 100 µM (inactive) | > 100 µM (inactive) | > 100 µM (inactive) | > 100 µM (inactive) | > 100 µM (inactive) | > 100 µM (inactive) | > 100 µM (inactive) | > 100 µM (inactive) | > 100 µM (inactive) | > 100 µM (inactive) | > 100 µM (inactive) | > 100 µM (inactive) |
| O=C1/C(=C/c2ccccc2)CN(C(=O)Oc2ccc(Cl)cc2)C/C1=C\c1ccccc1 | 2.17 µM (inactive) | 10.9 µM (inactive) | 1.14 µM (inactive) | 2.99 µM (inactive) | 2.36 µM (inactive) | 1.32 µM (inactive) | 10 µM (inactive) | 4.24 µM (inactive) | 1.53 µM (inactive) | 10 µM (inactive) | 7.13 µM (inactive) | 1.65 µM (inactive) | 2.23 µM (inactive) | 3.03 µM (inactive) | 0.635 µM (active) | 2.11 µM (inactive) | 0.871 µM (active) | 1.55 µM (inactive) |
| COC(=O)c1ccc(/N=N/N(C)CO)cc1 | 59.6 µM (inactive) | > 100 µM (inactive) | > 100 µM (inactive) | – | 57.4 µM (inactive) | 44.3 µM (inactive) | 81.8 µM (inactive) | 27.7 µM (inactive) | 48.6 µM (inactive) | > 100 µM (inactive) | 40.5 µM (inactive) | 83.2 µM (inactive) | 78 µM (inactive) | 80.2 µM (inactive) | > 100 µM (inactive) | 51.8 µM (inactive) | > 100 µM (inactive) | > 100 µM (inactive) |
| O=C1C(c2ccccc2)=[N+]([O-])c2cc([N+](=O)[O-])c(/C(Cl)=C/c3ccccc3)cc21 | 22.9 µM (inactive) | 31.2 µM (inactive) | 22.3 µM (inactive) | 35.2 µM (inactive) | 23.8 µM (inactive) | 17.9 µM (inactive) | – | 31.4 µM (inactive) | 18.6 µM (inactive) | 25.7 µM (inactive) | > 100 µM (inactive) | 16.1 µM (inactive) | 53.3 µM (inactive) | 24.5 µM (inactive) | 13.7 µM (inactive) | – | 4.06 µM (inactive) | 10.5 µM (inactive) |
| CC(=O)Nc1ccc(C(=O)NN2C(=O)C(Cl)C2c2cc(Br)cc(Br)c2O)cc1 (configuration not stated) | – | > 100 µM (inactive) | – | > 100 µM (inactive) | > 100 µM (inactive) | > 100 µM (inactive) | > 100 µM (inactive) | 37.3 µM (inactive) | > 100 µM (inactive) | > 100 µM (inactive) | > 100 µM (inactive) | > 100 µM (inactive) | – | > 100 µM (inactive) | > 100 µM (inactive) | > 100 µM (inactive) | > 100 µM (inactive) | > 100 µM (inactive) |
| C#CCCCCC#CC1CCCC1C1=CC(=O)c2ccccc21 (configuration not stated) | 4.81 µM (inactive) | 11.5 µM (inactive) | 4.5 µM (inactive) | 3.32 µM (inactive) | 8.93 µM (inactive) | 2.79 µM (inactive) | 7.36 µM (inactive) | 5.45 µM (inactive) | 4.43 µM (inactive) | 14.8 µM (inactive) | 15.3 µM (inactive) | 1.66 µM (inactive) | 5.25 µM (inactive) | 6.9 µM (inactive) | 3.22 µM (inactive) | 15 µM (inactive) | 1.33 µM (inactive) | 1.5 µM (inactive) |
| CCC(COC(=O)CC[C@@H](NC(=O)C(C)NC(=O)C(C)OC1C(O)C(CO)OC(OCc2ccccc2)C1NC(C)=O)C(N)=O)NC1c2ccccc2Nc2cccc([N+](=O)[O-])c21 (some centres not stated) | 37.4 µM (inactive) | > 100 µM (inactive) | > 100 µM (inactive) | > 100 µM (inactive) | > 100 µM (inactive) | > 100 µM (inactive) | > 100 µM (inactive) | 94.8 µM (inactive) | > 100 µM (inactive) | > 100 µM (inactive) | > 100 µM (inactive) | > 100 µM (inactive) | > 100 µM (inactive) | > 100 µM (inactive) | > 100 µM (inactive) | – | > 100 µM (inactive) | > 100 µM (inactive) |
| CC(=O)c1ccc(NC(=O)C(=O)C(C#N)CC(C)(C)C=O)cc1 (configuration not stated) | – | > 100 µM (inactive) | > 100 µM (inactive) | > 100 µM (inactive) | > 100 µM (inactive) | > 100 µM (inactive) | > 100 µM (inactive) | – | > 100 µM (inactive) | > 100 µM (inactive) | > 100 µM (inactive) | > 100 µM (inactive) | > 100 µM (inactive) | > 100 µM (inactive) | > 100 µM (inactive) | > 100 µM (inactive) | > 100 µM (inactive) | > 100 µM (inactive) |
| O=C(CCc1nnc(S)[nH]1)Nc1cccc(C(F)(F)F)c1 | > 100 µM (inactive) | > 100 µM (inactive) | > 100 µM (inactive) | > 100 µM (inactive) | > 100 µM (inactive) | > 100 µM (inactive) | > 100 µM (inactive) | > 100 µM (inactive) | > 100 µM (inactive) | > 100 µM (inactive) | > 100 µM (inactive) | > 100 µM (inactive) | > 100 µM (inactive) | > 100 µM (inactive) | > 100 µM (inactive) | > 100 µM (inactive) | > 100 µM (inactive) | > 100 µM (inactive) |
| CCCCC#C[I+]c1ccccc1 | 20.1 µM (inactive) | 14.8 µM (inactive) | 15.9 µM (inactive) | 19.9 µM (inactive) | 22.4 µM (inactive) | 15.1 µM (inactive) | 21.5 µM (inactive) | 15.6 µM (inactive) | 16.2 µM (inactive) | 15.6 µM (inactive) | 16.4 µM (inactive) | 16.1 µM (inactive) | 22.4 µM (inactive) | 17.2 µM (inactive) | 12.3 µM (inactive) | 31 µM (inactive) | 15.4 µM (inactive) | 4.97 µM (inactive) |
